The results in this text go back to patent US20230277508A1, “USE OF COMPOUND AS CYP2E1 INHIBITOR” (SHANGHAI LING XI BIOTECHNOLOGY DEVELOPMENT CO., LTD., priority 2020, published 2023).

As a reminder, the IC50 is the concentration that gives 50% inhibition.

Each structure is given as a SMILES string.

Data set [1] deals with U251 glioma cells. Description: Direct effect on U251 glioma cells in vitro (CCK8). The conditions noted are these: up to 128 μmol/L or 200 μmol/L. In kind it is cell-based, human. On the procedure: Experimental method: GL261 murine glioma cells and U251 human glioma cells in a logarithmic growth phase each were selected and inoculated into a 96-well plate at a concentration of 5*10^5 cells/mL, then 100 μL of a cell suspension was added to each well, and 12 h later, a medium was discarded; 200 μL of a basic medium including SMI0 at different concentrations ([…]) was added to each well, and 24 h later, 10 μL of a CCK8 reagent was added to each well; and the cells were further cultivated for 2 h, and an absorbance OD value of each well was determined at 450 nm by a microplate reader. 3 replicates were set for each well, and an average was taken. The proliferation activity was calculated based on the OD value.

Data set [2] deals with T1, human liver microsome CYP2E1 (Homo sapiens, UniProt P05181).
T1 construct: metabolic activity of a mixed liver microsome CYP2E1 of a healthy individual; from tissue; host or cells: mixed (pooled) human liver microsomes of healthy individuals
T1 sequence (P05181 whole entry): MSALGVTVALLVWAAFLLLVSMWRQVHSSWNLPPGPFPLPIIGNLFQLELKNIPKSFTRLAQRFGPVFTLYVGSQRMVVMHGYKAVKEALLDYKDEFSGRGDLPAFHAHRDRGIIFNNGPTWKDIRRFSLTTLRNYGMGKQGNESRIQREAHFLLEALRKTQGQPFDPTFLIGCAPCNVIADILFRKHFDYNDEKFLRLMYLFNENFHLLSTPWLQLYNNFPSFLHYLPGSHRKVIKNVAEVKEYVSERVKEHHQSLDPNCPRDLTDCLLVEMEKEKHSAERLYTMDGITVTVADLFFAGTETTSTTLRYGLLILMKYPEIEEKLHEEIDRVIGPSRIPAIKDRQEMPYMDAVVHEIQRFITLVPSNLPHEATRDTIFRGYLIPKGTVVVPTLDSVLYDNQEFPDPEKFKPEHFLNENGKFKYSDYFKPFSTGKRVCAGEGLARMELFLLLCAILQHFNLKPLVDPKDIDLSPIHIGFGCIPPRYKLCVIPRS
Description: Determination of IC50 for a CYP2E1 inhibitory effect (CZX probe, mixed liver microsome). The format is biochemical. The conditions noted are these: mixed liver microsome of healthy individuals 0.3 mg/mL, 62.5 μM CZX, 1 mM NADPH, 30 min; read-out: IC50 for 2E1 inhibition. As to the method:
CZX was used as a probe substrate to detect an inhibitory effect of an inhibitor to be tested on the metabolic activity of a mixed liver microsome CYP2E1 of a healthy individual (IC50: half inhibition concentration; Ki: inhibition constant; the smaller the IC50 and the smaller the Ki, the higher the inhibition intensity of the inhibitor), thereby determining an inhibitory effect of the inhibitor to be tested on the human liver microsome CYP2E1.
An incubation system in a total volume of 100 μL was adopted, including a substrate, an inhibitor of different concentrations, a liver microsomal protein, and phosphate-buffered saline (PBS). The incubation system was pre-incubated in a 37° C. water bath for 5 min, reduced coenzyme was added to allow a reaction for 30 min, and then the reaction was terminated in an ice bath. In a specific experiment, a concentration of an inhibitor can be selected as required.
In this example, the incubation system includes 62.5 μM CZX, 100 mM (pH=7.4) PBS, 0.3 mg/mL liver microsomal protein, and 1 mM NADPH.
In this example, the reaction is terminated with 1 mL of ethyl acetate. In other preferred examples, the reaction may also be terminated with 1 mL of methyl tert-butyl ether (MTBE), 1 mL of diethyl ether, or 100 μL of methanol.
A general note: Liver microsomes are a subcellular fraction often used to study metabolism.

Data set [3] has as its target T2, CYP2E1 (Mus musculus, UniProt Q05421).
T2 construct: from tissue; host or cells: liver microsomes of treated model mice (calcium precipitation)
As to the kind of experiment: CYP2E1 activity (liver microsome) in in situ transplanted mouse glioma model. The format is in vivo. The conditions noted are these: SMI0 intervention group vs model group, P<0.001. As to the method:
Experimental method: A calcium precipitation method was used to prepare a mouse liver microsome, and a Braford method was used to determine a protein concentration in the microsome. An incubation system was prepared with 2×PBS, a CZX solution, and the liver microsome at a final concentration of 0.5 mg/mL, and then pre-incubated at 37° C. for 5 min; NADPH was added to initiate a reaction, and a resulting mixture was incubated at 37° C. for 30 min and then placed on ice to terminate the reaction; and ethyl acetate was added to extract 6-hydroxychlorzoxazone, a resulting mixture was vortexed and centrifuged, and a resulting upper organic phase was collected and blow-dried with nitrogen. A peak area of a CZX metabolite 6-hydroxychlorzoxazone was detected by HPLC under the following conditions: methanol:water=56:44, and detection wavelength: 287 nm. A concentration A C of the metabolite 6-hydroxychlorzoxazone was calculated through substitution into a standard curve; and a reaction rate of conversion of CZX into 6-hydroxychlorzoxazone was calculated according to V(pmol/min/mg)=(ΔC*1000)/(B*T) to evaluate an enzymatic activity of CYP2E1, where B represents a protein concentration of the microsome (mg/mL) and T represents an incubation time (min). A correlation between CYP2E1 activity and tumor size in the mouse glioma model was analyzed.

Data set [4] has as its system CFA-induced rheumatoid arthritis in rats. As to the kind of experiment: CFA-induced rat rheumatoid arthritis model. In kind it is in vivo, SD rat. The conditions noted are these: for rat foot swelling alleviation rate: at 36 h. As to the method:
Experimental method: An SD rat rheumatoid arthritis model was constructed with CFA (0.1 mL/rat). The SMI0 intervention group was divided into an ultra-low-dose group, a low-dose group, a medium-dose group, and a high-dose group, which were intragastrically administered with the compound SMI0 respectively at 1 mg/kg, 6 mg/kg, 30 mg/kg, and 150 mg/kg every day starting from two days before modeling; and the positive control group was intragastrically administered with celecoxib at 5 mg/kg. 10 animals were provided for each group. 1 d before administration of CFA to the rats, the above grouping and doses were adopted, and then the rats were administered once every day until the modeling was completed on day 10. Each rat was administered with CFA at a sole of a right hindfoot. A volume of each of the right hindfeet of rats was measured every day by a rat foot swelling measuring instrument (which was measured every 12 h in the first 3 days). A foot swelling rate of each rat was calculated according to a change of a right hindfoot volume of the rat relative to a hindfoot volume of the rat before the CFA administration at each time point, and a difference in foot swelling rate between groups of rats was analyzed.

T2 sequence (Q05421 whole entry): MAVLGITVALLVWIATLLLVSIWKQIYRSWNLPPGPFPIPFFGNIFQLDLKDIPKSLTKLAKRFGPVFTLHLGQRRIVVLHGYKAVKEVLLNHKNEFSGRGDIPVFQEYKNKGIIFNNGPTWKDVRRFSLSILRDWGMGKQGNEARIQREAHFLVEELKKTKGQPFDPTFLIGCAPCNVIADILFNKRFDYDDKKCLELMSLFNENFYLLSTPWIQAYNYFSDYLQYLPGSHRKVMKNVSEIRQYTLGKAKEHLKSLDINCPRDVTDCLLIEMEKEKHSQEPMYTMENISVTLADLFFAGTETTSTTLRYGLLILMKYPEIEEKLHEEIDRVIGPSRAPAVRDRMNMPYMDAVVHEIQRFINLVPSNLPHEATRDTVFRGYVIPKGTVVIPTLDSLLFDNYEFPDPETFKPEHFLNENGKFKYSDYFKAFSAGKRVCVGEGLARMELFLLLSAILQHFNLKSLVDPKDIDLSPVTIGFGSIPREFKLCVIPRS

Turning to `CC(=O)c1scnc1C` [SMI0], the “effect on the proliferation of U251 glioma cells” value in data set [1] is on record as “no significant inhibitory effect”. In data set [2], the concentration for half-maximal inhibition (IC50) was 1.64 µM. For the same molecule, the CYP2E1 activity result in data set [3] is reported as “significantly reduced”. For the same molecule, the “rat foot swelling alleviation rate” value is reported as 20.8% in data set [4] (SMI0 1 mg/kg ig daily), 34.2% in data set [4] (SMI0 6 mg/kg ig daily), 44.1% in data set [4] (SMI0 30 mg/kg ig daily) and 52.5% in data set [4] (SMI0 150 mg/kg ig daily). Besides, the “rat foot swelling caused by CFA” value in data set [4] (SMI0 intervention group vs model group, P<0.001) was “significantly alleviated”.
